How the values were obtained:
[1] = tested on: oil field isolated anaerobic consortium, mainly SRB; experiment: Biocidal efficacy (MBC, complete bacterial kill) against anaerobic bacteria in contaminated salt solution; type: cell-based, sulfate reducing bacteria (SRB); conditions: 40° C., 24 hours
Method: Inside an anaerobic chamber (BACTRON anaerobic chamber), a deaerated sterile salt solution (3.1183 g of NaCl, 1.3082 mg of NaHCO3, 47.70 mg of KCl, 72.00 mg of CaCl2, 54.49 mg of MgSO4, 172.28 mg of Na2SO4, 43.92 mg of Na2CO3 in 1 L water) was contaminated with an oil field isolated anaerobic consortium, mainly SRB, at final bacterial concentrations of 10^6 to 10^7 CFU/mL. The aliquots of this contaminated water were then treated with NaOPP and DMOZ, or the NaOPP/DMOZ combination, NaOPP and Tris Nitro, or the NaOPP/Tris Nitro combination, NaOPP and HHT, or the NaOPP/HHT combination at different active concentration levels. […] Tables 1-3 summarize the efficacy of each biocide and their blends, and the Synergy Index of each combination.

[2] = tested on: Pseudomonas aeruginosa, ATCC 10145 and Staphylococcus aureus, ATCC 6538; experiment: Biocidal efficacy (MBC, complete bacteria kill) against aerobic bacteria in contaminated NaCl solution; type: cell-based; conditions: 37° C., 24 hours
Method: A sterile NaCl solution (0.85%) was contaminated with Pseudomonas aeruginosa, ATCC 10145 and Staphylococcus aureus, ATCC 6538 at final bacterial concentration of ca. 10^6 CFU/mL. The aliquots of this contaminated water were then treated with NaOPP and Tris Nitro, or the NaOPP/Tris Nitro combination, NaOPP and DMOZ or the NaOPP/DMOZ combination at different active concentration levels. After the mixtures were incubated at 37° C. for 24 hours, the biocidal efficacy was determined by minimum tested biocide concentration for complete bacteria kill in the aliquots. Tables 4 and 5 summarize the efficacy of each biocide and their blends, and the Synergy Index of each combination.

[3] = DMOZ alone or DMOZ part of NaOPP/DMOZ blend
[4] = NaOPP alone or NaOPP part of NaOPP/DMOZ blend
[5] = NaOPP alone or NaOPP part of NaOPP/Tris Nitro blend
[6] = Tris Nitro alone or Tris Nitro part of NaOPP/Tris Nitro blend

CC1(C)COCN1 [DMOZ, 4,4-dimethyloxazolidine]
MBC (active ppm) DMOZ [1, 3]: 74.1 active ppm | Average MBC (active ppm) DMOZ [2, 3]: 86.1 active ppm

OCCN1CN(CCO)CN(CCO)C1 [HHT, hexahydro-1,3,5-tris(2-hydroxyethyl)-s-triazine]
MBC (active ppm) HHT ([1]; HHT alone or HHT part of NaOPP/HHT blend): 111.1 active ppm

[Na+].[O-]c1ccccc1-c1ccccc1 [NaOPP, sodium o-phenylphenylate]
MBC (active ppm) NaOPP [1, 4]: 333.3 active ppm | MBC (active ppm) NaOPP ([1]; NaOPP alone or NaOPP part of NaOPP/HHT blend): 500 active ppm | MBC (active ppm) NaOPP [1, 5]: 500 active ppm | Average MBC (active ppm) NaOPP [2, 4]: 292.9 active ppm | MBC (active ppm) NaOPP [2, 5]: 266.3 active ppm

O=[N+]([O-])C(CO)(CO)CO [Tris Nitro, tris(hydroxymethyl)nitromethane]
MBC (active ppm) Tris Nitro [1, 6]: 44.4 active ppm | MBC (active ppm) Tris Nitro [2, 6]: 25.1 active ppm

Source: patent US8445521B2, “Synergistic antimicrobial composition” (Dow GLobal Technologies LLC, priority 2009, dated 2013)
